Measured values taken from ChEMBL document CHEMBL1201862, “PubChem BioAssay data set” (2004).
The source made the active and inactive calls.

Columns and labels:
[1] = biological target: DNA dC->dU-editing enzyme APOBEC-3A (Homo sapiens, UniProt P31941); assay: Dose Response confirmation of small molecule APOBEC3A DNA Deaminase Inhibitors via a fluorescence-based single-stranded DNA deaminase assay. [Related pubchem assays (depositor defined):AID493011, AID493024]; type: functional
[2] = biological target: DNA dC->dU-editing enzyme APOBEC-3G (Homo sapiens, UniProt Q9HC16); type: functional;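 note: Dose-response counterscreen measuring inhibition of APOBEC3G DNA deaminase activity, run while confirming APOBEC3A inhibitors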
Leucine aminopeptidase = biological target: T1, Leucine aminopeptidase (Plasmodium falciparum 3D7, UniProt Q8IL11); assay: P. falciparum M17LAP inhibitors, primary screen, biochemical, fluorogenic H-Leu-NHMec substrate, 1536-well (AID 1619); type: functional
T1 sequence (Q8IL11 whole entry): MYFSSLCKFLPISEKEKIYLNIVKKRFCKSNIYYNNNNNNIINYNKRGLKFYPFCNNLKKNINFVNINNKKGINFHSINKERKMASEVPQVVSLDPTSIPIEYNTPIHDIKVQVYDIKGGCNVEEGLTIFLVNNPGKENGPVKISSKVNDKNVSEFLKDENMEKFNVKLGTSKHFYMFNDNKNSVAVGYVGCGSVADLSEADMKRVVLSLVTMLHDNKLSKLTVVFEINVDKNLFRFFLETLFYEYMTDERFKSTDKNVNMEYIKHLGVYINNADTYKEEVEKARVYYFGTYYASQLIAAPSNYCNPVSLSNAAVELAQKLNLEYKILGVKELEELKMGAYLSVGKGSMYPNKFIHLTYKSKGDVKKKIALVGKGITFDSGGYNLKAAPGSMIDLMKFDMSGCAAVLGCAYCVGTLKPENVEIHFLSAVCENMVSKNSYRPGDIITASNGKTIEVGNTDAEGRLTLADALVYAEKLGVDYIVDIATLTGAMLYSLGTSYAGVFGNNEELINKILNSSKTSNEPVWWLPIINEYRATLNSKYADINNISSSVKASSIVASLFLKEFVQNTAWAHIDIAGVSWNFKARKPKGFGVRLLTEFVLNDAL

Cytochrome P450 3A4 = Cytochrome P450 3A4 (Homo sapiens, UniProt P08684);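 note: CYP3A4 tested as one member of a cytochrome P450 panel screen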
[3] = biological target: T2, Short transient receptor potential channel 4 (Mus musculus, UniProt Q9QUQ5); assay: mouse TRPC4 channel activators, dose response, cell-based, HEK293 TRPC4/mu-opioid, Fluo-4 calcium (AID 434937); type: functional
T2 sequence (Q9QUQ5 whole entry): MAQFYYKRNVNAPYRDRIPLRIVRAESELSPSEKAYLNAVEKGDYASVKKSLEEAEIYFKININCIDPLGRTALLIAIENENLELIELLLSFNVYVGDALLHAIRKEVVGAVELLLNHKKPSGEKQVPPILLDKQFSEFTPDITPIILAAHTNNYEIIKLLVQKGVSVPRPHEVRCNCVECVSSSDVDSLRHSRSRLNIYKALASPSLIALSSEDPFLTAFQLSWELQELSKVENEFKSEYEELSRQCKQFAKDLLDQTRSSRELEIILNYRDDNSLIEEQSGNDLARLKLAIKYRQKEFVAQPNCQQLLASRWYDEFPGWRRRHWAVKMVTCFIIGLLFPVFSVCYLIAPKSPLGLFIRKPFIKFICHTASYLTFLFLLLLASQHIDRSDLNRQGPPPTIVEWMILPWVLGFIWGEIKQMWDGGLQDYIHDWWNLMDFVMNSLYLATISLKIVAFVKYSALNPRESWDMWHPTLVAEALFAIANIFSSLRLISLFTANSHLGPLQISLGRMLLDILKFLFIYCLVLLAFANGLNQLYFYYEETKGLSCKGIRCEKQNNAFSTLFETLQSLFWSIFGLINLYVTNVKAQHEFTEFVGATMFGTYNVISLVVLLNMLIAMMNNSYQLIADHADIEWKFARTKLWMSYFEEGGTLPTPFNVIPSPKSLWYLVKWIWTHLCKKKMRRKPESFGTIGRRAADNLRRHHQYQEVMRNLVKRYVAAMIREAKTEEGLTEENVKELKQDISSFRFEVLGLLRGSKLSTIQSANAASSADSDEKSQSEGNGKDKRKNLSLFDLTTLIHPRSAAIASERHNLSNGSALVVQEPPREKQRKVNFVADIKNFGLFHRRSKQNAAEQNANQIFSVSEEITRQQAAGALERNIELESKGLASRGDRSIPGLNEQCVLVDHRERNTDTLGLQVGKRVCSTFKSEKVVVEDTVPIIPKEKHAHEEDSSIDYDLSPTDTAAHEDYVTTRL

Aminopeptidase N = biological target: T3, Aminopeptidase N (Plasmodium falciparum FcB1/Columbia, UniProt O96935); assay: P. falciparum M1AAP inhibitors, biochemical, fluorogenic H-Leu-NHMec substrate, 1536-well (AID 1445); design: species or system Plasmodium falciparum 3D7, 3D7
T3 sequence (O96935 whole entry): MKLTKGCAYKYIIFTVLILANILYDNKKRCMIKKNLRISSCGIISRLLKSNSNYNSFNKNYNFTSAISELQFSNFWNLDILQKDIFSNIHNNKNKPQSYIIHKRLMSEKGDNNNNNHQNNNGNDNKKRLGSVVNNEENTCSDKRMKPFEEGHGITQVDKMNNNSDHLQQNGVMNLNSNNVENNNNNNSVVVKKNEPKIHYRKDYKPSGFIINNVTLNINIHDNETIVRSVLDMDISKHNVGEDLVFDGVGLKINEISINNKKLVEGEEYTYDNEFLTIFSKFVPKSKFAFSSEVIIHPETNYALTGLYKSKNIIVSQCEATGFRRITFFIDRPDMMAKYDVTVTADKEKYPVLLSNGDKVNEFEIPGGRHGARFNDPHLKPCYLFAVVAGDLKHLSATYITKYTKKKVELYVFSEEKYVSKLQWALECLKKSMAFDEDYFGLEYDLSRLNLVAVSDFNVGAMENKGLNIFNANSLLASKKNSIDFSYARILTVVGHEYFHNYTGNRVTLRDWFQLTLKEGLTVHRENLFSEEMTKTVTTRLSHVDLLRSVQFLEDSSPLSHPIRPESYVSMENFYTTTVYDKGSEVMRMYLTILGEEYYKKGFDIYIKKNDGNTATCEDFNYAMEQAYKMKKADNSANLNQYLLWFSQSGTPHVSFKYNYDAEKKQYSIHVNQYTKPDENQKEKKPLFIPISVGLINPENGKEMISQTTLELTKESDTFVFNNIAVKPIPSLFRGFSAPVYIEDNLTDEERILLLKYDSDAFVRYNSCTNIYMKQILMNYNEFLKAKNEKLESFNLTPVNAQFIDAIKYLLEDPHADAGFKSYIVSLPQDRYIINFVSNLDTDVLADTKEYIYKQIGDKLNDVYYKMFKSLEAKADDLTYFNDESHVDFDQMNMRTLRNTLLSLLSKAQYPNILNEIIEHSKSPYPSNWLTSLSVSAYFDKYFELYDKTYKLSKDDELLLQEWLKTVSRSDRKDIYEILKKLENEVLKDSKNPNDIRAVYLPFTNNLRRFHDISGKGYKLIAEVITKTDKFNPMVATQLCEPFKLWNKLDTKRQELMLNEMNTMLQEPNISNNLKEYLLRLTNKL

HEK293 [4] = assay: cells; type: functional, cell-based; conditions: Homo sapiens
HEK293 [5] = assay: cells; type: functional, cell-based; conditions: Homo sapiens; remark: listed apart in the source
HEK293 [6] = assay: NOD2 signaling inhibitors in MDP-stimulated cells, cell-based, uHTS, luminescence (AID 2001); type: functional; conditions: Homo sapiens
INS1 = assay: beta cell apoptosis inhibitors, cytokine rescue, dose response, luminescence, retest (AID 449756); type: functional, cell-based; conditions: Rattus norvegicus;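 note: cell death triggered by IL-1 beta plus TNF-alpha plus IFN-gamma mixture; protective hits raise ATP signal compared with cytokine alone wells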
HEK293 [7] = assay: NOD1 signaling inhibitors, primary screen, cell-based, luminescence, uHTS (AID 1578); type: functional; conditions: Homo sapiens
HEK293 [8] = assay: cells; type: functional, cell-based; conditions: Homo sapiens; remark: listed apart in the source
[9] = biological target: Nucleotide-binding oligomerization domain-containing protein 2 (Homo sapiens, UniProt Q9HC29); assay: NOD2 signaling inhibitors, cell-based, luminescence, uHTS, HEK293 (AID 1566); type: functional
Sequence of Nucleotide-binding oligomerization domain-containing protein 2 (Q9HC29 whole entry, the tested form may be a part): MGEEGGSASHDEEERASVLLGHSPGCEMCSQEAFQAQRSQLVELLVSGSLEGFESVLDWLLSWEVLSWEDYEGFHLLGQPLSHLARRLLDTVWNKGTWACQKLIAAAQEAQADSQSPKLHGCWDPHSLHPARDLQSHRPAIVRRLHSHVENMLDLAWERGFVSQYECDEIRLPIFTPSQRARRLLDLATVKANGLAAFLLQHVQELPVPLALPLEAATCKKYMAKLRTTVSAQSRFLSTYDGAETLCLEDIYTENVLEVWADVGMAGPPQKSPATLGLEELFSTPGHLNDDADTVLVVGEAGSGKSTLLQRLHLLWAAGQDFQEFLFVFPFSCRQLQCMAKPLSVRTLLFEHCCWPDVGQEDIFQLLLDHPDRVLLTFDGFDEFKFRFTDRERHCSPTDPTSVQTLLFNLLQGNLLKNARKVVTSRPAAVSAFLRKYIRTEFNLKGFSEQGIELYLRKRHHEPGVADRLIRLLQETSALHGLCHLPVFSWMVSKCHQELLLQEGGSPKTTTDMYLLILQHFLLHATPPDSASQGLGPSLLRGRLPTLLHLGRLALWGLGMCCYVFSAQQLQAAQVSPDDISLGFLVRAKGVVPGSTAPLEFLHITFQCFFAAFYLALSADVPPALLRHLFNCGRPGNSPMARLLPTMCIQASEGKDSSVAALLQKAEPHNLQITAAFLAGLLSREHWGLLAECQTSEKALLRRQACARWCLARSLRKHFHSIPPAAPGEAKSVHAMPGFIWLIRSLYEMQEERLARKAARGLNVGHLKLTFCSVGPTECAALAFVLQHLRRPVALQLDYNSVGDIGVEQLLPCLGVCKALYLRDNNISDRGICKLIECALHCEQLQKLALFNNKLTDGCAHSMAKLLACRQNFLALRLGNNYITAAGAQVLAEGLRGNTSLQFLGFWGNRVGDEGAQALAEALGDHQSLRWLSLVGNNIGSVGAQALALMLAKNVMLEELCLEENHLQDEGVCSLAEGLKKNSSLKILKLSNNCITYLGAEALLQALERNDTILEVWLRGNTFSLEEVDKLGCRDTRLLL

Sequence of DNA dC->dU-editing enzyme APOBEC-3G (Q9HC16 whole entry): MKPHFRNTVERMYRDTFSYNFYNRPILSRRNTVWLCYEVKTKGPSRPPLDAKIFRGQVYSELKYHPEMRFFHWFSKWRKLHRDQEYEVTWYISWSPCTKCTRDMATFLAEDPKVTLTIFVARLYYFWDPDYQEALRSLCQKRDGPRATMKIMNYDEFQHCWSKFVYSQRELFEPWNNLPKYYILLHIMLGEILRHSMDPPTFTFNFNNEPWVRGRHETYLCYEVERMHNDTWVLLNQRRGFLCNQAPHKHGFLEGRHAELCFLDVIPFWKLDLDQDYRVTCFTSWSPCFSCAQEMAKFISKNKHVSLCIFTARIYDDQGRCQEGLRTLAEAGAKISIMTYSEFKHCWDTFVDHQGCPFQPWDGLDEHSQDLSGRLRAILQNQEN
Sequence of DNA dC->dU-editing enzyme APOBEC-3A (P31941 whole entry): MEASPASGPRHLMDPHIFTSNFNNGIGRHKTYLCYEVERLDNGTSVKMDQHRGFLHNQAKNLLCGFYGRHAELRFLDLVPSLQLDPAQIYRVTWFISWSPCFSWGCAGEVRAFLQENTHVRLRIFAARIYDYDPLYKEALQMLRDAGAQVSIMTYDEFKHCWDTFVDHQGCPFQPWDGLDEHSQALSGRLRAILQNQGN
Sequence of Cytochrome P450 3A4 (P08684 whole entry): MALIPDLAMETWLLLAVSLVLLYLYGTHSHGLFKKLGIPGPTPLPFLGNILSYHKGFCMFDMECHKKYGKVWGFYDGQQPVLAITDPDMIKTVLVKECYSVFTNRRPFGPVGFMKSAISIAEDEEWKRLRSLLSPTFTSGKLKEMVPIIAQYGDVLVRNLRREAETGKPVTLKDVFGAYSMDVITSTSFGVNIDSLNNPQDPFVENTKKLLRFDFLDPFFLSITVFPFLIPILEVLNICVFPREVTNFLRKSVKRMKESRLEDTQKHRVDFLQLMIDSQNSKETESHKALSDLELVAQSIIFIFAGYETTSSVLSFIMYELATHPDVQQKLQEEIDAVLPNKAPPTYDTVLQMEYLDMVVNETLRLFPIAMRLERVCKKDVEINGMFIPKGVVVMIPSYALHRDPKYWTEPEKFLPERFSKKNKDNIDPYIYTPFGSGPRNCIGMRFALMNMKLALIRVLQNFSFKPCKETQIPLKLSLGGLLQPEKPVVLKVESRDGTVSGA

With `CC1=CC(C)(C)[N+](C)(C)c2ccccc21` the IC50 [1] was 2.6 µM (active) and the IC50 [2] was 2.98 µM (active).

With `COc1ccc(/C=N/NC(=S)Nc2cccc(C(=O)O)c2)cc1` the IC50 (Leucine aminopeptidase) was 19.6 µM (active).

In the case of `O=S(=O)(c1cccc(C(F)(F)F)c1)N1CCC(c2cc(-c3cccc4ccccc34)[nH]n2)CC1`, the AC50 (Cytochrome P450 3A4) is reported as “inconclusive”.

`CSc1nc2nc(-c3ccccc3)cc(O)n2n1` was tested, and the IC50 (Leucine aminopeptidase) was 28.6 µM (active).

With `COc1ccc(-c2nn(-c3ccccc3C)cc2CNC(C)c2cn(C)nc2C)cc1F` (stereo not drawn) the EC50 [3] was 1.68 µM (active).

With `NC(N)=Nc1nc2ccc([N+](=O)[O-])cc2[nH]1` the AC50 (Cytochrome P450 3A4) was “inconclusive”.

In the case of `CCc1ccc(/C=C/c2c[nH]c3ccccc23)[n+](CC)c1`, the IC50 [1] is reported as 2.33 µM (active) and the IC50 [2] is reported as 2.24 µM (active).

With `O=C(NCc1cccs1)N[C@@H](Cc1ccccc1)C(=O)O` the IC50 (Leucine aminopeptidase) was 57.6 µM (active).

For `CCOc1cc(/C=N/NC(=O)c2cccs2)cc([N+](=O)[O-])c1O`, the IC50 (Aminopeptidase N) was 103 µM (active).

`Cc1ccc(-c2c(C#N)c(N)n3c(nc4ccccc43)c2C#N)cc1` was tested, and the IC50 (HEK293 [4]) was 6.06 µM (active), the IC50 (HEK293 [5]) was 11 µM (active) and the IC50 (HEK293 [6]) was 6.22 µM (active). The AC50 (INS1) was 3.86 µM (active), the EC50 (HEK293 [7]) was 2.11 µM (active) and the IC50 (HEK293 [8]) was > 20 µM (inactive). The EC50 [9] was > 20 µM (inactive).
